Laboratory results as given in ChEMBL document CHEMBL5036382 (ACS Med Chem Lett, 2022).
Calls of active or inactive are those of the source. The calls are words filed in the database; no cut-off is given here.

Columns and labels:
[1] = target: T1, DNA-directed RNA polymerase I subunit RPA1 (Homo sapiens, UniProt O95602); test: Inhibition of RNA polymerase 1 in human A-375 assessed as RPA194 degradation measured after 3 hrs by Hoechst 33342 staining based assay
[2] = test system: A-375; test: Inhibition of RPA2 in human A-375 cells assessed as downregulation of RPA2 gene at 1 uM incubated for 6 hrs measured by qPCR analysis; assay type: cell-based
[3] = test system: A-375; test: Inhibition of RPA3 in human A-375 cells assessed as downregulation of RPA3 gene at 1 uM incubated for 6 hrs measured by qPCR analysis; assay type: cell-based
[4] = Volume of distribution at steady state in CD1 mouse at 1 mg/kg, iv; assay type: ADME, organism-based; settings: in vivo, read-out: Vdss
[5] = Clearance in CD1 mouse at 1 mg/kg, iv; assay type: ADME, organism-based; settings: in vivo
[6] = Half life in CD1 mouse at 1 mg/kg, iv; assay type: ADME, organism-based; settings: in vivo
[7] = AUC (0 to infinity) in CD1 mouse at 30 mg/kg, po; assay type: ADME, organism-based; set-up: route oral, time infinity, dose 30 mg/kg; settings: in vivo
[8] = AUC (0 to infinity) in CD1 mouse at 1 mg/kg, iv; assay type: ADME, organism-based; set-up: time infinity, route intravenous, dose 1 mg/kg; settings: in vivo
[9] = Cmax in CD1 mouse at 30 mg/kg, po; assay type: ADME, organism-based; set-up: route oral, dose 30 mg/kg; settings: in vivo
[10] = test system: A-375; test: Cytotoxicity against human A-375 cells assessed as reduction in cell viability incubated for 72 hrs by cell titer glo luminescent assay; settings: A-375, 72 h
[11] = Oral bioavailability in CD1 mouse at 30 mg/kg; assay type: ADME, organism-based; settings: in vivo
[12] = Metabolic stability in mouse liver microsomes at 1 uM assessed as intrinsic clearance measured after 45 mins by LC-MS/MS analysis; assay type: ADME, Microsome; settings: read-out: CLH
[13] = target: T1, DNA-directed RNA polymerase I subunit RPA1; test: Inhibition of RPA1 in human A-375 cells assessed as downregulation of RPA1 gene at 1 uM incubated for 6 hrs measured by qPCR analysis; assay type: cell-based
[14] = Cmax in CD1 mouse at 30 mg/kg, ip; settings: in vivo
[15] = Half life in CD1 mouse at 30 mg/kg, ip; settings: in vivo
[16] = AUC (0 to infinity) in CD1 mouse at 30 mg/kg, ip; settings: in vivo
[17] = target: T2, Cytochrome P450 1A2 (Homo sapiens, UniProt P05177); test: Inhibition of recombinant human hepatic CYP1A2 expressed in baculovirus insect cell expression system in presence of CEC substrate measured by fluorescence plate reader assay
T2 sequence (P05177 whole entry): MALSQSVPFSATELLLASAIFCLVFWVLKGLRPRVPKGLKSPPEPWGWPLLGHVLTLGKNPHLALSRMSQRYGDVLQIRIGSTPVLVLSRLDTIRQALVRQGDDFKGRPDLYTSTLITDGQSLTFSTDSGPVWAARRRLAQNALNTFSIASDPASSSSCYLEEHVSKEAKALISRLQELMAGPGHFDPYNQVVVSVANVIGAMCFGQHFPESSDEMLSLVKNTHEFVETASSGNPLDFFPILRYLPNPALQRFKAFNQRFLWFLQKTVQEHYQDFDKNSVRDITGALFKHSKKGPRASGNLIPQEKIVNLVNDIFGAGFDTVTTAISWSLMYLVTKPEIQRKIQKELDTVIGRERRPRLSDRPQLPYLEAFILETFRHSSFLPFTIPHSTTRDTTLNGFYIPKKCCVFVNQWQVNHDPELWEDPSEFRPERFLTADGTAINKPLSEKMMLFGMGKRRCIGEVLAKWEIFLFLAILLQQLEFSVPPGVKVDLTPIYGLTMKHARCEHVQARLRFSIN

[18] = target: Voltage-gated inwardly rectifying potassium channel KCNH2 (Homo sapiens, UniProt Q12809); test: Inhibition on hERG expressed in HEK293 cells by Qpatch method
Sequence of Voltage-gated inwardly rectifying potassium channel KCNH2 (Q12809 whole entry): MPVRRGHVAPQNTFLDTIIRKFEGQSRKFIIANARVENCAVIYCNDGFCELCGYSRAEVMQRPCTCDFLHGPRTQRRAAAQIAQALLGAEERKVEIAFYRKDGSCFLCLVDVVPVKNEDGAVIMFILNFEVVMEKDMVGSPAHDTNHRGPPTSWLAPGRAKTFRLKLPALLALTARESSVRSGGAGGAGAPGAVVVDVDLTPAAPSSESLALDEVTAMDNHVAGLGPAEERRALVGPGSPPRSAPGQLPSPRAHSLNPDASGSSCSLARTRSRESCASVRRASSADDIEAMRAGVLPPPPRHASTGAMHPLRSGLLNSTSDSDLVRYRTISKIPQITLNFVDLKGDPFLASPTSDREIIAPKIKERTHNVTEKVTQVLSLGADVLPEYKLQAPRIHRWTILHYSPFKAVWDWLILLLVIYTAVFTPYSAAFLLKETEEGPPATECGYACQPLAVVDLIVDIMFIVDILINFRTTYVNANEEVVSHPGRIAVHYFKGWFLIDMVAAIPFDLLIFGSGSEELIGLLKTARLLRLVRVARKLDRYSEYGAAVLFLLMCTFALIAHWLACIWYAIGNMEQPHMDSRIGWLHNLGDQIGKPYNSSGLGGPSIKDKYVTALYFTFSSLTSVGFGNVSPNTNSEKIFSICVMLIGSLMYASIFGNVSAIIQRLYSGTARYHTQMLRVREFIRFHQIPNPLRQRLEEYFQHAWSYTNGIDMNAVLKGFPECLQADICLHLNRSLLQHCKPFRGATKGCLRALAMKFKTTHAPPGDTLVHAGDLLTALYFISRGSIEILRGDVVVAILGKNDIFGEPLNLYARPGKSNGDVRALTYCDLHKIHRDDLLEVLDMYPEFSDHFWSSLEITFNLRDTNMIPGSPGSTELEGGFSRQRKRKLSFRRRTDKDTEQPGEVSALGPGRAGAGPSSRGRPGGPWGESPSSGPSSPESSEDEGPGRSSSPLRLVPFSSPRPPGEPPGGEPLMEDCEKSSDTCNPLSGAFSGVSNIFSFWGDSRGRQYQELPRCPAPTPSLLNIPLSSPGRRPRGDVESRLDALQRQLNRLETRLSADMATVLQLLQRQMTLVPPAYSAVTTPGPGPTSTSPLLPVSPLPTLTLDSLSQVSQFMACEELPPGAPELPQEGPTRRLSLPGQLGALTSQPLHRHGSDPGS

T1 sequence (O95602 whole entry): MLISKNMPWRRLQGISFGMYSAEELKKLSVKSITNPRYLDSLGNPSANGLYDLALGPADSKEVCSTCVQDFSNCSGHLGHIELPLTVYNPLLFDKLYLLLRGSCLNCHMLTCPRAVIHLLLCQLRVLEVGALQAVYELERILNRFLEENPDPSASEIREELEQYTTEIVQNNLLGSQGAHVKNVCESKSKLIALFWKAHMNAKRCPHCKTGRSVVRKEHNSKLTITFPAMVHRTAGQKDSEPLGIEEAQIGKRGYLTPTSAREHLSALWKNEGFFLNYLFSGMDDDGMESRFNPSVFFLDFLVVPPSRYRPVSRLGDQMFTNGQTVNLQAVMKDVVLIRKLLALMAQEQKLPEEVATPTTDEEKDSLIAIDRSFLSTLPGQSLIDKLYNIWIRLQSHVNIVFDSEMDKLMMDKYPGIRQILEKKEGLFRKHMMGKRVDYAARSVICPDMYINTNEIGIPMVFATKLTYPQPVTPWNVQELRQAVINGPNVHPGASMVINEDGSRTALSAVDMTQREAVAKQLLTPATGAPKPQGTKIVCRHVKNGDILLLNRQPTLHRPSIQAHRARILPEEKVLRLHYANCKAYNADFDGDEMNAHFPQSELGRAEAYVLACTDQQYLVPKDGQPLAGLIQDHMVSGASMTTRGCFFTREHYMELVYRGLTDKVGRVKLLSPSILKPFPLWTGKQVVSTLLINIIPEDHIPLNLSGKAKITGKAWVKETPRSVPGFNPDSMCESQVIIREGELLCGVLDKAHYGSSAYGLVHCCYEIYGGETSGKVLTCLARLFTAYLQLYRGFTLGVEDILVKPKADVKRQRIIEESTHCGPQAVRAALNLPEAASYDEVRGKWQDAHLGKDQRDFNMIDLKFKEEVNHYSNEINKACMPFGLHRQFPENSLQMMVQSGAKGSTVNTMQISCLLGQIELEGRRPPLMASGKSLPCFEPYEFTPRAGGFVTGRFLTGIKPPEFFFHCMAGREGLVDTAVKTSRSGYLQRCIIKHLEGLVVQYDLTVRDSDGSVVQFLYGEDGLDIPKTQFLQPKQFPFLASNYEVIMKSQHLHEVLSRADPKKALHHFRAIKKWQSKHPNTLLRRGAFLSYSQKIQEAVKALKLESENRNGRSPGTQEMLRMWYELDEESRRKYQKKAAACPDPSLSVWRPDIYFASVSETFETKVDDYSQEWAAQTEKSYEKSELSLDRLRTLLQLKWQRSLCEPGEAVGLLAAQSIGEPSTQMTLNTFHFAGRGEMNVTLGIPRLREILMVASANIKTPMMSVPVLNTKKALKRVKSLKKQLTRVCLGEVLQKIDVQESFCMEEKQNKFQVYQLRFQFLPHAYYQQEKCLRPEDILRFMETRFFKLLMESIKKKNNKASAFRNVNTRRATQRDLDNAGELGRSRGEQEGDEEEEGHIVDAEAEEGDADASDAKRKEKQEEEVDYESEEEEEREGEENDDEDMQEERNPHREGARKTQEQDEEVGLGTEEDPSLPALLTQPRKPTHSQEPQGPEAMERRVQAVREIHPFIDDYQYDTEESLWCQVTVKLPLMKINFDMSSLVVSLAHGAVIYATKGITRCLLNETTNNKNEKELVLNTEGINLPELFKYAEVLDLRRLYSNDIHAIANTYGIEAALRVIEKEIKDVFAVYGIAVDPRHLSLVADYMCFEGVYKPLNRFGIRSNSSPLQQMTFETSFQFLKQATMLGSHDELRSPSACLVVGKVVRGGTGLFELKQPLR

Compound | IC50 [1] [nM] | other results
O=C(NCCN1CCCC(F)(F)C1)c1cccn2c(=O)c3cc4ccccc4cc3nc12 | > 10000 | –
CN(C)CCNC(=O)c1cccn2c(=O)c3cc4ccccc4cc3nc12 | – | inhibition [2]: inactive; inhibition [3]: inactive
CN1CCCC1CNC(=O)c1cccn2c(=O)c3cc4ccccc4cc3nc12 (stereo not drawn) | 3940 | –
CN(C)CCNC(=O)c1cccn2c(=O)c3ccc4ccccc4c3nc12 | 160 | –
O=C(NCCN1CCCC1)c1cccn2c(=O)c3ccc4ccccc4c3nc12 | 210 | Vd [4]: 33.2 L/kg; clearance [5]: 508 mL/min/kg; half-life [6]: 1.22 h; AUC(0-inf) [7]: 122 ng·h/mL; AUC(0-inf) [8]: 30.8 ng·h/mL; Cmax [9]: 13.9 ng/mL; IC50 [10]: 38 nM; bioavailability [11]: 13%; microsomal CLint at 1 µM [12]: 132 µL/min/mg; inhibition [13]: Active; inhibition [2]: inactive; inhibition [3]: inactive; Cmax [14]: 83 ng/mL; half-life [15]: 7.52 h; AUC(0-inf) [16]: 518 ng·h/mL
CN1CCOCC1CNC(=O)c1cccn2c(=O)c3cc4ccccc4cc3nc12 (stereo not drawn) | 1000 | –
O=C(NCCN1CCC(F)CC1)c1cccn2c(=O)c3cc4ccccc4cc3nc12 | 780 | –
O=C(NCCN1CCCC1)c1cccn2c(=O)c3c(ccc4cnncc43)nc12 | 4200 | –
O=C(NCCN1CCC(F)C1)c1cccn2c(=O)c3cc4ccccc4cc3nc12 (stereo not drawn) | 5750 | –
O=C(NCCN1CCCC1)c1cccn2c(=O)c3cc4c(cc3nc12)OCCO4 | 1040 | –
O=C(NCCN1CCS(=O)(=O)CC1)c1cccn2c(=O)c3cc4ccccc4cc3nc12 | > 10000 | –
O=C(NCCCN1CCCC1)c1cccn2c(=O)c3ccc4ccccc4c3nc12 | > 10000 | –
N#CC1CCN(CCNC(=O)c2cccn3c(=O)c4cc5ccccc5cc4nc23)CC1 | 740 | –
O=C(NCC1CCCCN1)c1cccn2c(=O)c3cc4ccccc4cc3nc12 (stereo not drawn) | 590 | –
O=C(NCCN1CC[C@H](F)C1)c1cccn2c(=O)c3ccc4ccccc4c3nc12 | > 10000 | IC50 [17]: 4500 nM; IC50 [18]: > 10000 nM
CN1CCN(CCNC(=O)c2cccn3c(=O)c4ccc5ccccc5c4nc23)CC1 | > 10000 | IC50 [17]: > 10000 nM; IC50 [18]: > 10000 nM
Cc1cc2nc3c(C(=O)NCCN4CCCC4)cccn3c(=O)c2cc1C | 1160 | –
CNCCNC(=O)c1cccn2c(=O)c3ccc4ccccc4c3nc12 | 470 | IC50 [17]: 300 nM; IC50 [18]: > 10000 nM
O=C(NCCN1CCC(O)(O)CC1)c1cccn2c(=O)c3cc4ccccc4cc3nc12 | 600 | –
O=C(NCCN1CCCC1)c1cccn2c(=O)c3cc4c(cc3nc12)OCO4 | 540 | –
NCCNC(=O)c1cccn2c(=O)c3ccc4ccccc4c3nc12 | > 10000 | IC50 [17]: > 10000 nM; IC50 [18]: > 10000 nM
O=C(NCCN1CCCC1)c1cccn2c1nc1cc3ccccc3cc12 | 1700 | –
O=C(NCCN1CCC(F)(F)CC1)c1cccn2c(=O)c3cc4ccccc4cc3nc12 | > 10000 | –
O=C(NCCN1CCCC1)c1cccn2c(=O)c3cc4c(cc3nc12)CCCC4 | 1390 | –
CC(C)N1CCCCC1CNC(=O)c1cccn2c(=O)c3cc4ccccc4cc3nc12 (stereo not drawn) | 10000 | –
O=C(NC1CNC1)c1cccn2c(=O)c3ccc4ccccc4c3nc12 | > 10000 | IC50 [17]: 200 nM; IC50 [18]: 3970 nM
O=C(NCCN1CCSCC1)c1cccn2c(=O)c3cc4ccccc4cc3nc12 | 10000 | –

Continued, in another order:

IC50 [1] [nM] | Compound | other results
> 10000 | O=C(NCCN1CCCC1)c1cccn2c(=O)c3c(ccc4ccccc43)nc12 | –
990 | CCN1CCCCC1CNC(=O)c1cccn2c(=O)c3cc4ccccc4cc3nc12 (stereo not drawn) | –
> 10000 | O=C(NCCN1CCCC(F)C1)c1cccn2c(=O)c3cc4ccccc4cc3nc12 (stereo not drawn) | –
> 10000 | O=C(NCCN1CCC(F)(F)C1)c1cccn2c(=O)c3cc4ccccc4cc3nc12 | –
> 10000 | CN1CCC(NC(=O)c2cccn3c(=O)c4ccc5ccccc5c4nc23)CC1 | IC50 [17]: > 10000 nM; IC50 [18]: 7390 nM
640 | O=C(NCCN1CCCCC1)c1cccn2c(=O)c3ccc4ccccc4c3nc12 | IC50 [17]: > 10000 nM; IC50 [18]: 3720 nM
5500 | O=C(NCCN1CCCC1)c1c(O)ccn2c(=O)c3cc4ccccc4cc3nc12 | –
600 | CCN(CC)CCNC(=O)c1cccn2c(=O)c3ccc4ccccc4c3nc12 | –
> 10000 | CN(C)CCCNC(=O)c1cccn2c(=O)c3ccc4ccccc4c3nc12 | –
780 | O=C(NCC1CCCN1)c1cccn2c(=O)c3cc4ccccc4cc3nc12 (stereo not drawn) | –
420 | O=C(NCCN1CCCC1)c1cccn2c(=O)c3cc4c(cc3nc12)OC(F)(F)O4 | –
9500 | O=C(NCCO)c1cccn2c(=O)c3ccc4ccccc4c3nc12 | IC50 [17]: 100 nM; IC50 [18]: > 10000 nM
920 | CC(NC(=O)c1cccn2c(=O)c3cc4ccccc4cc3nc12)C1CCCCN1 (stereo not drawn) | –
6000 | O=C(NCCN1CCCC1)c1cccn2c1nc1cc3ccccc3nc12 | –
6860 | COc1cc2nc3c(C(=O)NCCN4CCCC4)cccn3c(=O)c2cc1OC | –
1900 | O=C(NCCN1CC[C@@H](F)C1)c1cccn2c(=O)c3ccc4ccccc4c3nc12 | IC50 [17]: 2100 nM; IC50 [18]: 8260 nM
650 | O=C(NCC1CCCC(CO)N1)c1cccn2c(=O)c3cc4ccccc4cc3nc12 (stereo not drawn) | –
